# Patent publication US5349127A, “Expression of herbicide metabolizing cytochromes P450” (priority 1992, dated 1994)
# Key:
# S. lividans C37 = test: Percent conversion of herbicides by cultures (Example 16); format: in vitro ADME, Streptomyces lividans; settings: 3.0 mg herbicide in 25 ml broth; 24 hours
# Procedure: (§1) Separate cultures (50 ml) inoculated with S. lividans C37, S. lividans transformed with pCAO200SU1-FeS-B#9, S. griseolus ATCC11796, S. griseolus PH2003 transformed with pIJ425, or S. ariseolus PH2003 transformed with pCS325 were cultured in sporulation broth for 18 hours at 30° C. with shaking. Each culture was then resuspended in 25 ml fresh sporulation broth and 3.0 mg herbicide added. In the case of cultures of S. griseolus ATCC11796, a second culture containing herbicide and 3.0 mg 10001 was also prepared. Each culture was reincubated for 24 hours, then an aliquot of the medium was withdrawn and analyzed by HPLC. The percent conversion of herbicide was determined.
# [1] = system: S. lividans pCAO200SU1-FeS-B#9; test: as above; format: in vitro ADME, Streptomyces lividans; settings: for Percent Conversion: 3.0 mg herbicide in 25 ml broth, 24 hours; for metabolism by bacteria containing constitutively expressed P450SU1: summary of Table 13
# Procedure: as §1
# [2] = system: S. griseolus ATCC 11796, 10001 added; test: as above; format: in vitro ADME, Streptomyces griseolus; settings: 3.0 mg herbicide and 3.0 mg 10001 in 25 ml broth; 24 hours
# Procedure: as §1
# S. griseolus ATCC 11796 = test: as above; format: in vitro ADME, Streptomyces griseolus; settings: 3.0 mg herbicide in 25 ml broth; 24 hours
# Procedure: as §1
# [3] = system: S. griseolus PH2003 pCS325; test: as above; format: in vitro ADME, Streptomyces griseolus; settings: for Percent Conversion: 3.0 mg herbicide in 25 ml broth, 24 hours
# Procedure: as §1
# [4] = system: S. griseolus PH2003 pIJ425; test: as above; format: in vitro ADME, Streptomyces griseolus; settings: 3.0 mg herbicide in 25 ml broth; 24 hours
# Procedure: as §1
# [5] = target: T1, purified cytochrome p450SU1 (Streptomyces griseolus, UniProt P18326); test: Rate of metabolism of 10015 to 10014 supported by FeS proteins (Example 27); format: biochemical; settings: 0.2 mM 10015, 15 min
# T1 construct: Purified, native cytochromes P450SU1 and P450SU2; endogenous in cells; host or cells: sulfonylurea-induced Streptomyces griseolus cells
# T1 sequence (P18326 whole entry, looked up): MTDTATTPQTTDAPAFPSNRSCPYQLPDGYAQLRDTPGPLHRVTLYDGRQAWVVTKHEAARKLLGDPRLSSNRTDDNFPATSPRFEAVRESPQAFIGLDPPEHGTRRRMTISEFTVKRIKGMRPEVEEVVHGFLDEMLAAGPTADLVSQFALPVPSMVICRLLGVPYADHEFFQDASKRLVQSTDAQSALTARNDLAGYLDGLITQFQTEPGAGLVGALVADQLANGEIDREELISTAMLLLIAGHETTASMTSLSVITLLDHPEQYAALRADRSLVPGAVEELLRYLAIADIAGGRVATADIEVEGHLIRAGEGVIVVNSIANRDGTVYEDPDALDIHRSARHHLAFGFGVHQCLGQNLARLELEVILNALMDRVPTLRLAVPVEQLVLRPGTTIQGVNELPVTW
# Procedure: The purpose of this example was to define the combination of cytochrome p450SU1 and other proteins which results in optimal metabolism of sulfonylureas, based on conclusions from in vitro experiments. In these experiments, the rate of metabolism of 10015 to 10014, mediated by purified cytochrome p450SU1, was tested to find which FeS protein functions as the best direct electron donor.
# The reaction was initiated by-the addition of NADPH to a final concentration of 0.03 mM. After 15 min the reaction was terminated by the addition of 0.25 ml H2 O:acetonitrile:H3 PO4^- (80:19:1). After filtering this mixture through a 0.2 μm filter, the amount of metabolite (10014) formed was analyzed by HPLC.
# [6] = system: S. lividans transformed with pCAO400; test: Sulfonylurea metabolism by washed cell suspension (Example 5); format: in vitro ADME, Streptomyces lividans; settings: substrate 10004 about 100 μg/ml
# Procedure: Herbicides and their metabolites are measured by HPLC as described by Romesser et al., BBRC 140: 650-659 (1986), herein incorporated by reference, except that 0.1% H3 PO4 is used in both solvents. Chromatographic identity and quantitation of the herbicides and their resulting metabolites is determined by comparing them chromatographically with authentic standard compounds. Identity of the resulting metabolites is also confirmed by UV spectroscopy.
# A 100 ml culture of S. griseolus ATCC 11796 in sporulation broth and a 50 ml culture of S. lividans transformed with pCAO400 in YEME broth were prepared and incubated for 24 hours as described. At that time, the S. griseolus culture was split into two 50 ml aliquots into two separate flasks and 25 ml of fresh sporulation broth was added to each and 9 mg of […] was added to one of these cultures to induce cytochrome P450SU1 expression. Fresh YEME broth (25 ml) was added to the S. lividans culture. After an additional 6 hours growth at 30° C., the cells in each culture were harvested as described above, washed twice with MOPS (50 mM, pH 7.2) and recentrifuged. The cell pellets were resuspended in four cell volumes of MOPS (50 mM, pH 7.2) containing 0.2% glucose and about 100 μg/ml of 10004. These cell suspensions were incubated at 30° C. with shaking and aliqouts were taken at 2 and 5.5 hours. The supernatant of each aliquot was analyzed by HPLC and the concentrations of the sulfonylurea compound 10004 and its metabolite 10005 were determined.
# [7] = system: S. lividans pCAO200SU1-FeS-B#9; test: Sulfonylurea metabolism by washed cell suspension (Examples 6-9); format: in vitro ADME, Streptomyces lividans; settings: substrate 10004
# [8] = system: S. lividans pCAO200SU1#12; test: as above; format: in vitro ADME, Streptomyces lividans; settings: substrate 10004
# S. lividans pCAO200 = test: as above; format: in vitro ADME, Streptomyces lividans; settings: substrate 10004
Compound,Percent Conversion (S. lividans C37),Percent Conversion [1],metabolism by bacteria containing constitutively expressed P450SU1 [1],Percent Conversion [2],Percent Conversion (S. griseolus ATCC 11796),Percent Conversion [3],Percent Conversion [4],concentration in supernatant ([6]; 2 h),concentration in supernatant ([6]; 5.5 h),concentration in supernatant ([7]; 2 h),concentration in supernatant ([7]; 4 h),concentration in supernatant ([7]; 6 h),concentration in supernatant ([8]; 2 h),concentration in supernatant ([8]; 4 h),concentration in supernatant ([8]; 6 h),concentration in supernatant (S. lividans pCAO200; 2 h),concentration in supernatant (S. lividans pCAO200; 4 h),concentration in supernatant (S. lividans pCAO200; 6 h),other results
"CN(C)c1nc(=O)n(C2CCCCC2)c(=O)n1C [compound 10017, 3-cyclohexyl-1-methyl-6-dimethylamino-S-triazine-2,4(1H,3H)dione]",19%,47%,metabolized,35%,1%,98%,6%,–,–,–,–,–,–,–,–,–,–,–,metabolism by bacteria containing constitutively expressed P450SU2 ([3]; summary of Table 13): metabolized
spinach Fd: spinach ferredoxin (an FeS protein),–,–,–,–,–,–,–,–,–,–,–,–,–,–,–,–,–,–,"Rate of 10015 metabolism to 10014 [5]: 0.4 (nmol 10014)·(nmol p450)-1·(mi; Rate of 10015 metabolism to 10014 ([5]; 4 mM FeS addition, FNR 0.2 mM): 0.2 (nmol 10014)·(nmol p450)-1·(mi; Rate of 10015 metabolism to 10014 ([5]; 4 mM FeS addition, FNR 2.0 mM): 0.2 (nmol 10014)·(nmol p450)-1·(mi"
"Cc1ccc(NC(=O)N(C)C)cc1Cl [compound 10019, 3-(3-chloro-p-tolyl)-1,1-dimethylurea]",0%,35%,metabolized,80%,0%,9%,0%,–,–,–,–,–,–,–,–,–,–,–,–
"N#Cc1cc(Br)c(O)c(Br)c1 [compound 10023, 3,5-dibromo-4-hydroxybenzonitrile]",0%,0%,–,0%,0%,–,–,–,–,–,–,–,–,–,–,–,–,–,–
CCCCN1Cc2cccc(S(=O)(=O)NC(=O)Nc3nc(OC)cc(OC)n3)c2S1(=O)=O [compound 10004],–,–,–,–,–,–,–,72 µM,0 µM,2 µM,1 µM,2 µM,81 µM,29 µM,0 µM,97 µM,92 µM,85 µM,–
"COc1cc(OC)nc(NC(=O)NS(=O)(=O)c2cccc3c2S(=O)(=O)N(CCC(C)O)C3)n1 (centres unmarked) [compound 10005, 2-(3-hydroxybutyl)-2,3-dihydro-N-[(4,6-dimethoxypyrimidin-2-yl)aminocarbonyl]1,2-benzisothiazole-7-sulfonamide-1,1-dioxide]",–,–,–,–,–,–,–,67 µM,125 µM,35 µM,100 µM,100 µM,43 µM,84 µM,109 µM,22 µM,26 µM,30 µM,–
